According to PubChem BioAssay (NCI):
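Growth conditions: 96-well plates. Treatment: test compound, 48 hours, 5 concentrations. Analysis: linear interpolation between bracketing concentrations; unreached endpoints set to highest concentration. GI50 = concentration required for 50% inhibition of growth. TGI: total growth inhibition.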

Key:
Assay in all cases: NCI anticancer screen, dose series, 48 h
786-0 renal = test system: 786-0 renal
A498 renal = test system: A498 renal
A549 NSCLC = test system: A549 NSCLC
ACHN renal = test system: ACHN renal
BT-549 breast = test system: BT-549 breast
CAKI-1 renal = test system: CAKI-1 renal
CCRF-CEM leukemia = test system: CCRF-CEM leukemia
COLO 205 colon = test system: COLO 205 colon
DU-145 prostate = test system: DU-145 prostate
EKVX NSCLC = test system: EKVX NSCLC
HCC-2998 colon = test system: HCC-2998 colon
HCT-116 colon = test system: HCT-116 colon
HCT-15 colon = test system: HCT-15 colon
HOP-92 NSCLC = test system: HOP-92 NSCLC
HS 578T breast = test system: HS 578T breast
HT29 colon = test system: HT29 colon
K-562 leukemia = test system: K-562 leukemia
KM12 colon = test system: KM12 colon
LOX IMVI melanoma = test system: LOX IMVI melanoma
M14 melanoma = test system: M14 melanoma
MALME-3M melanoma = test system: MALME-3M melanoma
MCF7 breast = test system: MCF7 breast
MDA-MB-231 breast = test system: MDA-MB-231 breast
MDA-MB-435 = test system: MDA-MB-435
MOLT-4 leukemia = test system: MOLT-4 leukemia
NCI-H226 lung = test system: NCI-H226 lung
NCI-H460 lung = test system: NCI-H460 lung
NCI-H522 lung = test system: NCI-H522 lung
NCI/ADR-RES ovarian = test system: NCI/ADR-RES ovarian
OVCAR-4 ovarian = test system: OVCAR-4 ovarian
OVCAR-5 ovarian = test system: OVCAR-5 ovarian
OVCAR-8 ovarian = test system: OVCAR-8 ovarian
PC-3 prostate = test system: PC-3 prostate
RXF 393 renal = test system: RXF 393 renal
SF-268 CNS = test system: SF-268 CNS
SF-295 CNS = test system: SF-295 CNS
SF-539 CNS = test system: SF-539 CNS
SK-MEL-2 melanoma = test system: SK-MEL-2 melanoma
SK-MEL-28 melanoma = test system: SK-MEL-28 melanoma
SK-MEL-5 melanoma = test system: SK-MEL-5 melanoma
SK-OV-3 ovarian = test system: SK-OV-3 ovarian
SN12C renal = test system: SN12C renal
SNB-19 CNS = test system: SNB-19 CNS
SNB-75 CNS = test system: SNB-75 CNS
SR leukemia = test system: SR leukemia
SW-620 colon = test system: SW-620 colon
T-47D breast = test system: T-47D breast
TK-10 renal = test system: TK-10 renal
U251 CNS = test system: U251 CNS
UACC-62 melanoma = test system: UACC-62 melanoma
UO-31 renal = test system: UO-31 renal

In the case of `C#CC(=O)Nc1cccc2c1cc(C)n2-c1nc2c(c(NCc3ccccc3)n1)CCCC2`, the GI50 (786-0 renal) was 18.9 nM, the TGI (786-0 renal) was 35.9 nM and the GI50 (A498 renal) was 1750 nM. For the same molecule, the TGI (A498 renal) was 3740 nM, the GI50 (A549 NSCLC) was 1970 nM and the TGI (A549 NSCLC) was 4100 nM. The GI50 (ACHN renal) was 273 nM, the TGI (ACHN renal) was 786 nM and the GI50 (BT-549 breast) was 137 nM. For the same molecule, the TGI (BT-549 breast) was 324 nM, the GI50 (CAKI-1 renal) was 478 nM and the TGI (CAKI-1 renal) was 942 nM. It also gave a GI50 (CCRF-CEM leukemia) of 25.5 nM, a TGI (CCRF-CEM leukemia) of 60.5 nM and a GI50 (COLO 205 colon) of 267 nM. It also gave a TGI (COLO 205 colon) of 803 nM, a GI50 (DU-145 prostate) of 1180 nM and a TGI (DU-145 prostate) of 2540 nM. The GI50 (EKVX NSCLC) was 1310 nM, the TGI (EKVX NSCLC) was 2960 nM and the GI50 (HCC-2998 colon) was 335 nM. It also gave a TGI (HCC-2998 colon) of 1000 nM, a GI50 (HCT-116 colon) of 174 nM and a TGI (HCT-116 colon) of 415 nM. For the same molecule, the GI50 (HCT-15 colon) was 167 nM, the TGI (HCT-15 colon) was 409 nM and the GI50 (HOP-92 NSCLC) was 142 nM. The TGI (HOP-92 NSCLC) was 315 nM, the GI50 (HS 578T breast) was 353 nM and the TGI (HS 578T breast) was 3070 nM. The GI50 (HT29 colon) was 54.3 nM, the TGI (HT29 colon) was 121 nM and the GI50 (K-562 leukemia) was 368 nM. For the same molecule, the TGI (K-562 leukemia) was 3450 nM, the GI50 (KM12 colon) was 213 nM and the TGI (KM12 colon) was 546 nM. For the same molecule, the GI50 (LOX IMVI melanoma) was under 13.2 nM, the TGI (LOX IMVI melanoma) was under 18.4 nM and the GI50 (M14 melanoma) was 303 nM. For the same molecule, the TGI (M14 melanoma) was 1130 nM, the GI50 (MALME-3M melanoma) was 54.7 nM and the TGI (MALME-3M melanoma) was 195 nM. The GI50 (MCF7 breast) was 226 nM, the TGI (MCF7 breast) was 1230 nM and the GI50 (MDA-MB-231 breast) was 57.8 nM. It also gave a TGI (MDA-MB-231 breast) of 261 nM, a GI50 (MDA-MB-435) of 463 nM and a TGI (MDA-MB-435) of 1660 nM. It also gave a GI50 (MOLT-4 leukemia) of 150 nM, a TGI (MOLT-4 leukemia) of 443 nM and a GI50 (NCI-H226 lung) of 250 nM. For the same molecule, the TGI (NCI-H226 lung) was 644 nM, the GI50 (NCI-H460 lung) was 759 nM and the TGI (NCI-H460 lung) was 2590 nM. For the same molecule, the GI50 (NCI-H522 lung) was 17.4 nM, the TGI (NCI-H522 lung) was 37.2 nM and the GI50 (NCI/ADR-RES ovarian) was 127 nM. It also gave a TGI (NCI/ADR-RES ovarian) of 645 nM, a GI50 (OVCAR-4 ovarian) of 208 nM and a TGI (OVCAR-4 ovarian) of 491 nM. The GI50 (OVCAR-5 ovarian) was 279 nM, the TGI (OVCAR-5 ovarian) was 977 nM and the GI50 (OVCAR-8 ovarian) was 136 nM. For the same molecule, the TGI (OVCAR-8 ovarian) was 779 nM, the GI50 (PC-3 prostate) was 186 nM and the TGI (PC-3 prostate) was 351 nM. The GI50 (RXF 393 renal) was 152 nM, the TGI (RXF 393 renal) was 311 nM and the GI50 (SF-268 CNS) was 199 nM. The TGI (SF-268 CNS) was 438 nM, the GI50 (SF-295 CNS) was 207 nM and the TGI (SF-295 CNS) was 510 nM. The GI50 (SF-539 CNS) was 172 nM, the TGI (SF-539 CNS) was 337 nM and the GI50 (SK-MEL-2 melanoma) was 1250 nM. The TGI (SK-MEL-2 melanoma) was 2920 nM, the GI50 (SK-MEL-28 melanoma) was 1220 nM and the TGI (SK-MEL-28 melanoma) was 2790 nM. It also gave a GI50 (SK-MEL-5 melanoma) of 98.5 nM, a TGI (SK-MEL-5 melanoma) of 259 nM and a GI50 (SK-OV-3 ovarian) of 519 nM. The TGI (SK-OV-3 ovarian) was 1090 nM, the GI50 (SN12C renal) was 70.6 nM and the TGI (SN12C renal) was 427 nM. It also gave a GI50 (SNB-19 CNS) of 845 nM, a TGI (SNB-19 CNS) of 2660 nM and a GI50 (SNB-75 CNS) of 141 nM. For the same molecule, the TGI (SNB-75 CNS) was 294 nM, the GI50 (SR leukemia) was under 20.1 nM and the TGI (SR leukemia) was 50.7 nM. The GI50 (SW-620 colon) was 200 nM, the TGI (SW-620 colon) was 461 nM and the GI50 (T-47D breast) was 697 nM. The TGI (T-47D breast) was 3330 nM, the GI50 (TK-10 renal) was 1660 nM and the TGI (TK-10 renal) was 3090 nM. The GI50 (U251 CNS) was 178 nM, the TGI (U251 CNS) was 338 nM and the GI50 (UACC-62 melanoma) was 165 nM. The TGI (UACC-62 melanoma) was 351 nM, the GI50 (UO-31 renal) was 46.6 nM and the TGI (UO-31 renal) was 124 nM.
